Values after ≈ are worked out from the molar mass of the structure shown. Values joined by “and” are separate entries in the source; they are usually repeats but may differ in a detail not shown here. Equal values may be shown once. Read-outs that look alike come from different tables or passages of the source. Numbered stars: 1 amine (or outer) side, 2 acyl side, 3 side chain; on linkers, the order of the positions; unused ones are H or OH. Square brackets hold non-standard residues; d marks the D form. Peptide text beside a SMILES is read from it. X1 = CC(C)N1CCN(c2ccc(-c3cccc(C[C@@H](C(=O)[*:2])N(C)[*:1])c3)cc2)CC1; X3 = CN1CCN(c2ccc(-c3cccc(C[C@@H](C(=O)[*:2])N(C)[*:1])c3)cn2)CC1; X7 = CC(C)N1CCN(c2ccc(-c3cccc(C[C@H](N[*:1])C(=O)[*:2])c3)cc2)CC1; X10 = CN([C@@H](Cc1cccc(-c2ccc(N3CCNCC3)nc2)c1)C(=O)[*:2])[*:1]; Hmp(2R,3S) = CC[C@H](C)[C@@H](O)C(=O)O; NMeVal(β-OH) = CN[C@H](C(=O)O)C(C)(C)O; NMeV = CN[C@H](C(=O)O)C(C)C
Key:
[1] = system: C. parapsilosis MMX 2323 ATCC 22019; test: MIC assay (CLSI microdilution); format: cell-based, Candida parapsilosis
Summary of the method: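 Broth microdilution MIC testing of Candida parapsilosis ATCC 22019 followed CLSI methods in RPMI-1640, with or without 0.002% Tween-80. Yeast grown 48 hours at 35° C on Sabouraud dextrose agar was suspended to a 0.5 McFarland standard and diluted 1:100 to roughly 0.5-2.5×10^3 CFU/mL. The MIC was the lowest concentration preventing visible growth.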

[2] = system: A. fumigatus MMX 6782 ATCC 13073; test: MIC/MEC assay (CLSI microdilution); format: cell-based; conditions: for minimal effective concentration: RPMI plus 0.002% Tween-80, read-out: MEC
Summary of the method: (§1)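 Broth microdilution per CLSI in RPMI-1640 with 0.002% Tween-80; MMX 5280 also run without Tween-80. Test compounds serially diluted two-fold in 95% ethanol, amphotericin B in DMSO (0.06-64 μg/mL). Aspergillus spore inoculum gave approximately 0.2-2.5×10^4 CFU/mL final.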

[3] = system: A. niger MMX 0624 ATCC 16888; test: MIC/MEC assay (CLSI microdilution); format: cell-based; conditions: Aspergillus niger, ATCC16888, 48 h; for minimal effective concentration: RPMI plus 0.002% Tween-80, read-out: MEC; for MIC: RPMI plus 0.002% Tween-80, read-out: MIC
Summary of the method: as §1

[4] = system: A. fumigatus MMX 5944; test: MIC/MEC assay (CLSI microdilution); format: cell-based; conditions: Aspergillus fumigatus, MMX5944, 48 h; for minimal effective concentration: RPMI plus 0.002% Tween-80; for MIC: RPMI plus 0.002% Tween-80, read-out: MIC
Summary of the method: as §1

[5] = system: A. fumigatus MMX 6781 ATCC MYA-4609; test: MIC/MEC assay (CLSI microdilution); format: cell-based
Summary of the method: as §1

[6] = system: A. fumigatus from Aureogen; test: MIC/MEC assay (CLSI microdilution); format: cell-based; conditions: Aspergillus fumigatus, 48 h; for minimal effective concentration: RPMI plus 0.002% Tween-80; for MIC: RPMI plus 0.002% Tween-80, read-out: MIC
Summary of the method: as §1

[7] = system: A. flavus MMX 5948; test: MIC/MEC assay (CLSI microdilution); format: cell-based; conditions: Aspergillus flavus, MMX5948, 48 h; for minimal effective concentration: RPMI plus 0.002% Tween-80; for MIC: RPMI plus 0.002% Tween-80, read-out: MIC
Summary of the method: as §1

[8] = system: A. fumigatus MMX 5280 ATCC MYA-3626; test: MIC/MEC assay (CLSI microdilution); format: cell-based, Aspergillus fumigatus
Summary of the method: as §1

[9] = system: C. albicans MMX 2000 ATCC 10231; test: MIC assay (CLSI microdilution); format: cell-based; conditions: Candida albicans, ATCC10231, RPMI plus 0.002% Tween-80; read-out: MIC
[10] = system: C. neoformans MMX 0634 ATCC 90112; test: MIC assay (CLSI microdilution); format: cell-based; conditions: Cryptococcus neoformans, read-out: MIC
[11] = system: C. albicans MMX 2000 ATCC 10231; test: MIC assay (CLSI microdilution); format: cell-based; conditions: Candida albicans, ATCC10231, Without Tween-80; read-out: MIC
[12] = ATCC22019, RPMI plus 0.002% Tween-80, read-out: MIC
[13] = ATCC22019, Without Tween-80, read-out: MIC
[14] = Aspergillus fumigatus, ATCC13073, 48 h
[15] = Aspergillus fumigatus, ATCC13073, 48 h, RPMI plus 0.002% Tween-80, read-out: MIC
[16] = Aspergillus fumigatus, 48 h, RPMI plus 0.002% Tween-80, read-out: MIC
[17] = Aspergillus fumigatus, 48 h, RPMI plus 0.002% Tween-80, read-out: MEC
[18] = Aspergillus fumigatus, 48 h, Without Tween-80, read-out: MIC
[19] = ATCC90112, 72 h, 72 hour, RPMI plus 0.002% Tween-80
[20] = RPMI plus 0.002% Tween-80, 48 hr

SMILES	MIC [1, 12] [µg/mL]	MIC [1, 13] [µg/mL]	minimal effective concentration [2, 14] [µg/mL]	MIC [2, 15] [µg/mL]	minimal effective concentration [3] [µg/mL]	MIC [3] [µg/mL]	minimal effective concentration [4] [µg/mL]	MIC [4] [µg/mL]	minimal effective concentration [6] [µg/mL]	MIC [6] [µg/mL]	minimal effective concentration [7] [µg/mL]	MIC [7] [µg/mL]	minimal effective concentration [8, 17] [µg/mL]	MIC [8, 16] [µg/mL]	MIC [8, 18] [µg/mL]	MEC ([8]; Without Tween-80, 48 hr)	MIC ([8]; Without Tween-80, 48 hr) [µg/mL]	MIC [9] [µg/mL]	MIC [10, 19] [µg/mL]	MIC [11] [µg/mL]	further results
CC[C@H](C)[C@@H]1NC(=O)[C@@H]2CCCN2C(=O)[C@H](Cc2cccc(-c3ccc(N4CCN(C)CC4)nc3)c2)N(C)C(=O)[C@H](Cc2ccccc2)NC(=O)[C@H](C(C)C)N(C)C(=O)[C@@H]([C@@H](C)CC)OC(=O)[C@H](C(C)(C)O)N(C)C(=O)[C@H](CC(C)C)NC(=O)[C@H](C(C)C)N(C)C1=O [Compound 20] (cyclo(F[X3]PI[NMeV]L[NMeVal(β-OH)][Hmp(2R,3S)][NMeV]))	0.03	1 (≈ 0.783 µM)	0.03	0.12	0.008	0.015	0.015	0.12	0.03	0.12	0.008	0.015	0.06	0.25	1 (≈ 0.783 µM)	1 µg/mL	2 (≈ 1.57 µM)	0.008	0.12	0.5 (≈ 0.392 µM)	MIC ([1]; Without Tween-80): 2 µg/mL (≈ 1.57 µM); MIC [5, 16]: 0.12 µg/mL; minimal effective concentration ([5]; Aspergillus fumigatus, RPMI plus 0.002% Tween-80, 48 hr): 0.06 µg/mL; minimal effective concentration ([8]; Aspergillus fumigatus, 48 h, Without Tween-80, read-out: MEC): 0.5 µg/mL; MIC ([10]; ATCC90112, RPMI plus 0.002% Tween-80): 0.03 µg/mL
CC[C@H](C)[C@@H]1NC(=O)[C@@H]2CCCN2C(=O)[C@H](Cc2cccc(-c3ccc(N4CCNCC4)nc3)c2)N(C)C(=O)[C@H](Cc2ccccc2)NC(=O)[C@H](C(C)C)N(C)C(=O)[C@@H]([C@@H](C)CC)OC(=O)[C@H](C(C)(C)O)N(C)C(=O)[C@H](CC(C)C)NC(=O)[C@H](C(C)C)N(C)C1=O [Compound 30] (cyclo(F[X10]PI[NMeV]L[NMeVal(β-OH)][Hmp(2R,3S)][NMeV]))	0.06	2 (≈ 1.58 µM)	0.5	2	0.5	0.5	0.5	1	0.5	1	0.12	0.5	–	–	2 (≈ 1.58 µM)	1 µg/mL	–	0.015	0.25	0.5 (≈ 0.396 µM)	MEC [5, 20]: 1 µg/mL; MIC [5, 20]: 2 µg/mL; MEC [8, 20]: 1 µg/mL; MIC [8, 20]: 2 µg/mL
CC[C@H](C)[C@@H]1NC(=O)[C@@H]2CCCN2C(=O)[C@H](Cc2cccc(-c3ccc(N4CCN(C(C)C)CC4)cc3)c2)N(C)C(=O)[C@H](Cc2cccc(-c3ccc(N4CCN(C(C)C)CC4)cc3)c2)NC(=O)[C@H](C(C)C)N(C)C(=O)[C@@H]([C@@H](C)CC)OC(=O)[C@H](C(C)(C)O)N(C)C(=O)[C@H](CC(C)C)NC(=O)[C@H](C(C)C)N(C)C1=O [Compound 31] (cyclo(I[NMeV]L[NMeVal(β-OH)][Hmp(2R,3S)][NMeV][X7][X1]P))	0.5	2 (≈ 1.33 µM)	–	–	0.5	1	0.5	1	0.25	0.5	0.12	0.5	0.5	2	1 (≈ 0.664 µM)	1/1 μg/mL and 1 μg/mL	2 (≈ 1.33 µM)	0.06	1	1 (≈ 0.664 µM)	MEC [2, 20]: 1 µg/mL; MIC [2, 20]: 2 µg/mL; MEC [5, 20]: 1 µg/mL; MIC [5, 20]: 2 µg/mL

Reference: patent US11066447B2, “Aureobasidium derivatives and methods of synthesis” (AureoGen Biosciences, Inc., priority 2016, dated 2021)
